Drawing on patent US20250333406A1, “SULFONYL CYCLIC DERIVATIVES, AND COMPOSITIONS AND METHODS THEREOF” (Lysoway Therapeutics, Inc., priority 2023, published 2025), this text covers EC50 for 29 compounds.

Each structure is given as a SMILES string.

The test system of the assay is TFEB. Briefly: TFEB Nuclear Translocation Assay. The settings on record: read-out: EC50 of TFEB activation. The class given is cell-based.
Take `CC(F)(F)c1ccc(S(=O)(=O)n2nc(N3CCN(c4ncc(F)cn4)CC3C(C)(C)C)c3c(Cl)cccc32)cc1` (centres unmarked) [Compound 108, 3-[2-tert-butyl-4-(5-fluoropyrimidin-2-yl)piperazin-1-yl]-4-chloro-1-[4-(1,1-difluoroethyl)phenyl]sulfonyl-indazole]: the EC50 (commonly the concentration needed to bring the measured effect to its halfway point) is at most 1 µM.

With `CC(C)S(=O)(=O)c1ccc(S(=O)(=O)n2nc(N3CCC[C@@H]3C(F)(F)F)c3c(Cl)cccc32)cc1` [Compound 109, 4-chloro-1-(4-isopropylsulfonylphenyl)sulfonyl-3-[(2R)-2-(trifluoromethyl)pyrrolidin-1-yl]indazole], the EC50 is at most 1 µM.

As to `CC(C)S(=O)(=O)n1ccc(S(=O)(=O)n2nc(N3CCN(c4ncc(F)cn4)CC34CC4)c3c(Cl)cccc32)c1` [Compound 111, 4-chloro-3-[7-(5-fluoropyrimidin-2-yl)-4,7-diazaspiro [2.5]octan-4-yl]-1-(1-isopropylsulfonylpyrrol-3-yl) sulfonyl-indazole], the EC50 is at most 1 µM.

For `O=S(=O)(c1ccc(C(F)F)cc1)n1nc(N2CCN(c3ncc(F)cn3)CC2C2CC2)c2c(Cl)cccc21` (centres unmarked) [Compound 112, 4-chloro-3-[2-cyclopropyl-4-(5-fluoropyrimidin-2-yl)piperazin-1-yl]-1-[4-(difluoromethyl)phenyl]sulfonyl-indazole], the EC50 is at most 1 µM.

For the compound `O=S(=O)(c1ccc(C(F)(F)F)cc1)n1nc(N2CCN(c3ncc(F)cn3)CC23CC3)c2c(Cl)cccc21` [Compound 113, 4-chloro-3-[7-(5-fluoropyrimidin-2-yl)-4,7-diazaspiro[2.5]octan-4-yl]-1-[4-(trifluoromethyl)phenyl]sulfonyl-indazole], the EC50 was at most 1 µM.

Consider `O=S(=O)(c1ccc(S(=O)(=O)n2nc(N3CCN(c4ncc(F)cn4)CC34CC4)c3c(Cl)cccc32)cc1)C(F)F` [Compound 114, 4-chloro-1-[4-(difluoromethylsulfonyl)phenyl]sulfonyl-3-[7-(5-fluoropyrimidin-2-yl)-4,7-diazaspiro[2.5]octan-4-yl]indazole], for which the EC50 was at most 1 µM.

In the case of `O=S(=O)(c1ccc(OC(F)F)cc1)n1nc(N2CCN(c3ncc(F)cn3)CC23CC3)c2c(Cl)cccc21` [Compound 115, 4-chloro-1-[4-(difluoromethoxy)phenyl]sulfonyl-3-[7-(5-fluoropyrimidin-2-yl)-4,7-diazaspiro[2.5]octan-4-yl]indazole], the EC50 is at most 1 µM.

Take `CC(F)(F)c1ccc(S(=O)(=O)n2nc(N3CCN(c4ncc(F)cn4)CC34CC4)c3c(Cl)cccc32)cc1` [Compound 116, 4-chloro-1-[4-(1,1-difluoroethyl)phenyl]sulfonyl-3-[7-(5-fluoropyrimidin-2-yl)-4,7-diazaspiro[2.5]octan-4-yl]indazole]: the EC50 is at most 1 µM.

`O=S(=O)(c1ccc(OC(F)(F)F)cc1)n1nc(N2CCN(c3ncc(F)cn3)CC23CC3)c2c(Cl)cccc21` [Compound 117, 4-chloro-3-[7-(5-fluoropyrimidin-2-yl)-4,7-diazaspiro [2.5]octan-4-yl]-1-[4-(trifluoromethoxy)phenyl]sulfonyl-indazole]: the EC50 was at most 1 µM.

Turning to `O=S(=O)(c1ccc(SC(F)(F)F)cc1)n1nc(N2CCN(c3ncc(F)cn3)CC23CC3)c2c(Cl)cccc21` [Compound 118, 4-chloro-3-[7-(5-fluoropyrimidin-2-yl)-4,7-diazaspiro[2.5]octan-4-yl]-1-[4-(trifluoromethylsulfanyl)phenyl]sulfonyl-indazole], the EC50 is at most 1 µM.

Consider `CC(F)(F)c1ccc(S(=O)(=O)n2nc(N3CCN(C4COC4)CC34CC4)c3c(Cl)cccc32)cc1` [Compound 119, 4-chloro-1-((4-(1,1-difluoroethyl)phenyl)sulfonyl)-3-(7-(oxetan-3-yl)-4,7-diazaspiro[2.5]octan-4-yl)-1H-indazole], for which the EC50 is at most 1 µM.

With `CC(F)(F)c1ccc(S(=O)(=O)n2nc(N3CCN(C4COC4)CC3C(F)(F)F)c3c(Cl)cccc32)cc1` (centres unmarked) [Compound 120, 4-chloro-1-((4-(1,1-difluoroethyl)phenyl)sulfonyl)-3-(4-(oxetan-3-yl)-2-(trifluoromethyl)piperazin-1-yl)-1H-indazole], the EC50 is at most 1 µM.

Take `CC(F)(F)c1ccc(S(=O)(=O)n2nc(N3CCN(c4ncc(F)cn4)C[C@H]3C(C)(C)F)c3c(Cl)cccc32)cc1` [Compound 121, (S)-4-chloro-1-((4-(1,1-difluoroethyl)phenyl)sulfonyl)-3-(2-(2-fluoropropan-2-yl)-4-(5-fluoropyrimidin-2-yl)piperazin-1-yl)-1H-indazole]: the EC50 is at most 1 µM.

Take `CC(F)(F)c1ccc(S(=O)(=O)n2nc(N3CCN(c4ncc(F)cc4F)CC34CC4)c3c(Cl)cccc32)cc1` [Compound 123, 4-chloro-1-((4-(1,1-difluoroethyl)phenyl)sulfonyl)-3-(7-(3,5-difluoropyridin-2-yl)-4,7-diazaspiro[2.5]octan-4-yl)-1H-indazole]: the EC50 was at most 1 µM.

In the case of `CC(F)(F)c1ccc(S(=O)(=O)n2nc(N3CCN(c4ccc(Cl)cc4F)CC34CC4)c3c(Cl)cccc32)cc1` [Compound 124, 4-chloro-3-(7-(4-chloro-2-fluorophenyl)-4,7-diazaspiro[2.5]octan-4-yl)-1-((4-(1,1-difluoroethyl)phenyl)sulfonyl)-1H-indazole], the EC50 is at most 1 µM.

Take `CC(F)(F)c1ccc(S(=O)(=O)n2nc(N3CCN(c4ccc(F)cc4Cl)CC34CC4)c3c(Cl)cccc32)cc1` [Compound 125, 4-chloro-3-(7-(2-chloro-4-fluorophenyl)-4,7-diazaspiro [2.5]octan-4-yl)-1-((4-(1,1-difluoroethyl)phenyl)sulfonyl)-1H-indazole]: the EC50 is at most 1 µM.

Regarding `CC(F)(F)c1ccc(S(=O)(=O)n2nc(N3CCN(c4ccc(F)cc4F)CC34CC4)c3c(Cl)cccc32)cc1` [Compound 126, 4-chloro-1-((4-(1,1-difluoroethyl)phenyl)sulfonyl)-3-(7-(2,4-difluorophenyl)-4,7-diazaspiro[2.5]octan-4-yl)-1H-indazole], the EC50 was at most 1 µM.

With `CC(F)(F)c1ccc(S(=O)(=O)n2nc(N3CCN(C(=O)F)CC34CC4)c3c(Cl)cccc32)cc1` [Compound 127, 4-(4-chloro-1-((4-(1,1-difluoroethyl)phenyl)sulfonyl)-1H-indazol-3-yl)-4,7-diazaspiro [2.5]octane-7-carbonyl fluoride], the EC50 was at most 1 µM.

`CC(F)(F)c1ccc(S(=O)(=O)n2nc(N3CCN(C(C)(C)CF)CC34CC4)c3c(Cl)cccc32)cc1` [Compound 128, 4-chloro-1-((4-(1,1-difluoroethyl)phenyl)sulfonyl)-3-(7-(1-fluoro-2-methylpropan-2-yl)-4,7-diazaspiro [2.5]octan-4-yl)-1H-indazole]: the EC50 was at most 1 µM.

For the compound `CC(F)(F)C12CC(S(=O)(=O)n3nc(N4CCN(c5ncc(F)cn5)CC45CC5)c4c(Cl)cccc43)(C1)C2` [Compound 129, 4-chloro-1-((3-(1,1-difluoroethyl)bicycle [1.1.1]pentan-1-yl)sulfonyl)-3-(7-(5-fluoropyrimidin-2-yl)-4,7-diazaspiro [2.5]octan-4-yl)-1H-indazole], the EC50 was at most 1 µM.

In the case of `CC(F)(F)c1ccc(S(=O)(=O)n2nc(N3CCN(C(C)(CF)CF)CC34CC4)c3c(Cl)cccc32)cc1` [Compound 130, 4-chloro-1-[4-(1,1-difluoroethyl)phenyl]sulfonyl-3-[7-[2-fluoro-1-(fluoromethyl)-1-methyl-ethyl]-4,7-diazaspiro [2.5]octan-4-yl]indazole], the EC50 was at most 1 µM.

On to `O=S(=O)(n1nc(N2CCN(c3ncc(F)cn3)CC23CC3)c2c(Cl)cccc21)C12CC(C(F)(F)F)(C1)C2` [Compound 131, 4-chloro-3-[7-(5-fluoropyrimidin-2-yl)-4,7-diazaspiro [2.5]octan-4-yl]-1-[[3-(trifluoromethyl)-1-bicyclo [1.1.1]pentanyl]sulfonyl]indazole], for which the EC50 is at least 10 µM.

Turning to `O=S(=O)(n1nc(N2CCN(c3ncc(F)cn3)CC23CC3)c2c(Cl)cccc21)C12CC(F)(C1)C2` [Compound 132, 4-chloro-1-[(3-fluoro-1-bicyclo [1.1.1]pentanyl)sulfonyl]-3-[7-(5-fluoropyrimidin-2-yl)-4,7-diazaspiro [2.5]octan-4-yl]indazole], the EC50 was at least 10 µM.

`CC(F)(F)c1ccc(S(=O)(=O)n2nc(N3CCN(c4ncc(F)cn4)CC34CC4)c3c(F)cccc32)cc1` [Compound 133, 1-[4-(1,1-difluoroethyl)phenyl]sulfonyl-4-fluoro-3-[7-(5-fluoropyrimidin-2-yl)-4,7-diazaspiro [2.5]octan-4-yl]indazole]: the EC50 was at most 1 µM.

For `CC(F)(F)c1ccc(S(=O)(=O)n2nc(N3CCN(c4ncc(F)cn4)CC34CC4)c3c(O)cccc32)cc1` [Compound 134, 1-[4-(1,1-difluoroethyl)phenyl]sulfonyl-3-[7-(5-fluoropyrimidin-2-yl)-4,7-diazaspiro [2.5]octan-4-yl]indazol-4-ol], the concentration giving a half-maximal response (EC50) is at least 10 µM.

Regarding `CC(F)(F)c1ccc(S(=O)(=O)n2nc(N3CCN(c4ncc(F)cn4)CC34CC4)c3c(Cl)cccc32)cn1` [Compound 135, 4-chloro-1-[[6-(1,1-difluoroethyl)-3-pyridyl]sulfonyl]-3-[7-(5-fluoropyrimidin-2-yl)-4,7-diazaspiro [2.5]octan-4-yl]indazole], the EC50 is at most 1 µM.

As to `CC(F)(F)c1cnc(-n2nc(N3CCN(c4ncc(F)cn4)CC34CC4)c3c(Cl)cccc32)nc1` [Compound 136, 4-chloro-1-[5-(1,1-difluoroethyl)pyrimidin-2-yl]-3-[7-(5-fluoropyrimidin-2-yl)-4,7-diazaspiro [2.5]octan-4-yl]indazole], the EC50 was at least 10 µM.

Consider `CC(F)(F)c1ncc(S(=O)(=O)n2nc(N3CCN(c4ncc(F)cn4)CC34CC4)c3c(Cl)cccc32)cn1` [Compound 137, 4-chloro-1-[2-(1,1-difluoroethyl)pyrimidin-5-yl]sulfonyl-3-[7-(5-fluoropyrimidin-2-yl)-4,7-diazaspiro [2.5]octan-4-yl]indazole], for which the EC50 is at most 1 µM.

Regarding `CC1COCC(C)N1c1nn(S(=O)(=O)c2ccn(S(=O)(=O)C(C)C)c2)c2cccc(Cl)c12` (centres unmarked) [Compound 138, 4-[4-chloro-1-(1-isopropylsulfonylpyrrol-3-yl)sulfonyl-indazol-3-yl]-3,5-dimethyl-morpholine], the EC50 is at most 1 µM.
